Source: US20210317140A1, “Heterocyclic Compounds and Methods of Use” (MEDIVATION TECHNOLOGIES, INC, priority 2013, published 2021)
Where “and” joins values, the source holds several entries; their conditions need not be identical. Equal entries are not always repeated.

How the values were obtained:
BTK = biological target: T1, BTK (Homo sapiens, UniProt Q06187); assay: BTK kinase assay (HotSpot, 33P ATP); type: biochemical; conditions: for BTK @ 0.1 μM (% Inh): 0.1 μM compound; for BTK @ 1 μM (% Inh): 1 μM compound; for IC50: 10 dose IC50, 10 μM ATP
T1 construct: purchased Reaction Biology Corporation
T1 sequence (Q06187 whole entry): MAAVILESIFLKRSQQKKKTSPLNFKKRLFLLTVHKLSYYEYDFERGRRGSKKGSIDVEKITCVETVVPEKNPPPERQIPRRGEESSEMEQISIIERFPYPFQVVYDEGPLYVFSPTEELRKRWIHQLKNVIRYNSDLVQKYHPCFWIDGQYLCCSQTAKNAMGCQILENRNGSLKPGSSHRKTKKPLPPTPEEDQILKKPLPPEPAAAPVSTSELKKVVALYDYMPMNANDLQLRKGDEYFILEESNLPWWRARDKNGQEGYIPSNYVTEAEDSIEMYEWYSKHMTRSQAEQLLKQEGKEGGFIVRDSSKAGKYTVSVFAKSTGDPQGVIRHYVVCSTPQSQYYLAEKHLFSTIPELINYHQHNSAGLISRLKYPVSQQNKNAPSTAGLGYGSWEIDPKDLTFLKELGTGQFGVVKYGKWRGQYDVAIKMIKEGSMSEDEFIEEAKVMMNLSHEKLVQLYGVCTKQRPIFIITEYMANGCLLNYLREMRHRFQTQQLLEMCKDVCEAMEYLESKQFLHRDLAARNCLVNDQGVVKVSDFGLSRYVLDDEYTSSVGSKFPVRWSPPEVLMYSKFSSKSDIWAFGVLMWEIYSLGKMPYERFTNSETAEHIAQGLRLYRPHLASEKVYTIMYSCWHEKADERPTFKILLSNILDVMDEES
Outline: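 In 20 mM Hepes (pH 7.5) with 10 mM MgCl2, 1 mM EGTA, 0.1 mM Na3VO4, 2 mM DTT, 0.02% Brij35, 0.02 mg/mL BSA and 1% DMSO, kinase and substrate were exposed to ten compound doses for 15–20 min.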

PI3Kδ = biological target: T2, PI3Kδ (Homo sapiens, UniProt O00329); assay: PI3Kδ kinase assay (HTRF, PIP3 detection); type: biochemical; conditions: for PI3Kδ @ 0.1 μM (% Inh): 0.1 μM compound; for PI3Kδ @ 1 μM (% Inh): 1 μM compound; for IC50: 10 dose IC50, 10 μM ATP
T2 construct: purchased Reaction Biology Corporation
T2 sequence (O00329 whole entry): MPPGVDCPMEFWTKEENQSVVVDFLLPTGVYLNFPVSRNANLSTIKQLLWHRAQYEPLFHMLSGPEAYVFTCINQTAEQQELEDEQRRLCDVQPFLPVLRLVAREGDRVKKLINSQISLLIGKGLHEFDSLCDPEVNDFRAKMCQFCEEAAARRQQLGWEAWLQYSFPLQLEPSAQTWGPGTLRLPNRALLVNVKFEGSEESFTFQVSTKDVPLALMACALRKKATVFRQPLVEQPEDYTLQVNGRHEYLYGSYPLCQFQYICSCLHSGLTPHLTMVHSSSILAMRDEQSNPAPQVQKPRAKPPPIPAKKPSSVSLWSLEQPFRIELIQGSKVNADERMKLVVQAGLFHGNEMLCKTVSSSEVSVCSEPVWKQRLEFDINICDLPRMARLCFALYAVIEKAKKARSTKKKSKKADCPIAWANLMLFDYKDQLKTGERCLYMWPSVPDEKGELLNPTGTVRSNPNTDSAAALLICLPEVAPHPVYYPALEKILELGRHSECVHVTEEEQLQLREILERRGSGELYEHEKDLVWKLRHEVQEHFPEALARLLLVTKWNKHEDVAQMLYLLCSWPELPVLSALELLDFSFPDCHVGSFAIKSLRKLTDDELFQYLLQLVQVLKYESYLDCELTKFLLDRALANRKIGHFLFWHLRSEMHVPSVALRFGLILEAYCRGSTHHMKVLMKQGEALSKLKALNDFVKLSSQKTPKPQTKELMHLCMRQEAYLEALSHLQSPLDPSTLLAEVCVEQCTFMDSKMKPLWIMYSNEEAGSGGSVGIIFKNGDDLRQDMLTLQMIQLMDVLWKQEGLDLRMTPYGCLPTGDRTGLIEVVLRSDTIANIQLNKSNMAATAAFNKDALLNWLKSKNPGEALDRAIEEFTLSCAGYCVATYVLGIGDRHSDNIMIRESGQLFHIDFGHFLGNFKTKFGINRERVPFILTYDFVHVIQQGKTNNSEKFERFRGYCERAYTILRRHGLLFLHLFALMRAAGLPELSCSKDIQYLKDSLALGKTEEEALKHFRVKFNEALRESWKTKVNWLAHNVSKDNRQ
T2 sequence (P27986 whole entry partner): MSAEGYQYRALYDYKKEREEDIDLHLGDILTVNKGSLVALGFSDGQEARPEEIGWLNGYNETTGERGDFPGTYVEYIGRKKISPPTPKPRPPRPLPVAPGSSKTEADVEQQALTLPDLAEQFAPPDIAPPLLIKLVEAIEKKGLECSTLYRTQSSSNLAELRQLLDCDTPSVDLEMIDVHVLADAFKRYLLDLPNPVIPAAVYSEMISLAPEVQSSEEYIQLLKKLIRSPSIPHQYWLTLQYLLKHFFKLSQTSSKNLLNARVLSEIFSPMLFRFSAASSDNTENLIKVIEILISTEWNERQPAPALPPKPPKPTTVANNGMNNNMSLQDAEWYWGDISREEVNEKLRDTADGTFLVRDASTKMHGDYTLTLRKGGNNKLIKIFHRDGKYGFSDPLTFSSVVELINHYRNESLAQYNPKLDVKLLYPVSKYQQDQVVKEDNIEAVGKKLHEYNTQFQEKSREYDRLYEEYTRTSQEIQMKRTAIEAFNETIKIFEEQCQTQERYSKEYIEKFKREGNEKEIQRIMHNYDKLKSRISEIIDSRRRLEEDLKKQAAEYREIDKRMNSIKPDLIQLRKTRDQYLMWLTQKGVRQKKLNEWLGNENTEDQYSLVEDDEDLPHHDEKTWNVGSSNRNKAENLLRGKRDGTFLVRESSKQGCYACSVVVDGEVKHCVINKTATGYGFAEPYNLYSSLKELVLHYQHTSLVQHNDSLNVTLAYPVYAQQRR
Outline: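 PIP3 formation read by loss of energy transfer as it displaces biotin-PIP3 from a Eu anti-GST/GST-PH/streptavidin-APC complex, calibrated against PIP3 standards.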

| SMILES | BTK @ 0.1 μM (% Inh) (BTK; 10 μM ATP) | BTK @ 1 μM (% Inh) (BTK; 10 μM ATP) | IC50 (BTK) [nM] | PI3Kδ @ 0.1 μM (% Inh) (PI3Kδ; 10 μM ATP) | PI3Kδ @ 1 μM (% Inh) (PI3Kδ; 10 μM ATP) | IC50 (PI3Kδ) [nM] | BTK @ 0.01 μM (% Inh) (BTK; 0.01 μM compound, 10 μM ATP) | PI3Kδ @ 0.01 μM (% Inh) (PI3Kδ; 0.01 μM compound, 10 μM ATP) |
| --- | --- | --- | --- | --- | --- | --- | --- | --- |
| Nc1ncnc2c1c(-c1ccc(Br)c(O)c1)nn2C1CCc2ccccc21 (stereo not drawn) [36b, 5-[4-amino-1-(2,3-dihydro-1H-inden-1-yl)-1H-pyrazolo[3,4-d]pyrimidin-3-yl]-2-bromophenol] | 33.82 % Inh | 76.93 | 123 | 40.07 % Inh | 79.26 | 155 |  |  |
| Nc1ncnc2c1c(-c1ccnc3[nH]ccc13)nn2C1Cc2ccccc2C1 [Compound No. 70, 1-(2,3-dihydro-1H-inden-2-yl)-3-{1H-pyrrolo[2,3-b]pyridin-4-yl}-1H-pyrazolo[3,4-d]pyrimidin-4-amine] | 12.11 % Inh | 36.56 |  | 9.29 % Inh | 56.41 |  |  |  |
| Nc1cccc(-c2nn(C3Cc4ccccc4C3)c3ncnc(N)c23)c1 [Compound No. 45, 3-(3-aminophenyl)-1-(2,3-dihydro-1H-inden-2-yl)-1H-pyrazolo[3,4-d]pyrimidin-4-amine] | 49.32 % Inh | 87.47 |  | 12.84 % Inh | 44.54 |  |  |  |
| NC(=O)c1cccc(-c2nn(C3CCc4ccccc4C3)c3ncnc(N)c23)c1 (stereo not drawn) [compound 27, 3-(4-amino-1-tetralin-2-yl-pyrazolo[3,4-d]pyrimidin-3-yl)benzamide] | 13.54 % Inh |  |  | 4.7 % Inh |  |  |  |  |
| Nc1ncnc2c1c(-c1ccc3cc[nH]c3c1)nn2C1Cc2ccccc2C1 [Compound No. 39, 1-(2,3-dihydro-1H-inden-2-yl)-3-(1H-indol-6-yl)-1H-pyrazolo[3,4-d]pyrimidin-4-amine] | 45.81 % Inh and 37.23 % Inh | 87.24 |  | 24.12 % Inh and 30.2 % Inh | 67.63 |  |  |  |
| Nc1ncnc2c1c(-c1ccc3c(c1)OC(F)(F)O3)nn2C1Cc2ccccc2C1 [Compound No. 75, 3-(2,2-difluoro-2H-1,3-benzodioxol-5-yl)-1-(2,3-dihydro-1H-inden-2-yl)-1H-pyrazolo[3,4-d]pyrimidin-4-amine] | 10.92 % Inh | 29.0 |  | −0.46 % Inh | 15.57 |  |  |  |
| COc1cc(-c2nn(C3Cc4ccccc4C3)c3ncnc(N)c23)ccc1C(F)(F)F [Compound No. 69, 1-(2,3-dihydro-1H-inden-2-yl)-3-[3-methoxy-4-(trifluoromethyl)phenyl]-1H-pyrazolo[3,4-d]pyrimidin-4-amine] | 19.61 % Inh | 61.7 | 791 | 4.96 % Inh | 60.21 | 328 |  |  |
| Nc1ncnc2c1c(-c1cccc(CO)c1)nn2C1Cc2ccccc2C1 [Compound No. 54, {3-[4-amino-1-(2,3-dihydro-1H-inden-2-yl)-1H-pyrazolo[3,4-d]pyrimidin-3-yl]phenyl}methanol] | 27.64 % Inh | 72.19 | 840 | 22.41 % Inh | 72.03 | 924 |  |  |
| COc1cc(-c2nn(C3Cc4ccccc4C3)c3ncnc(N)c23)ccc1N [Compound No. 66, 3-(4-amino-3-methoxyphenyl)-1-(2,3-dihydro-1H-inden-2-yl)-1H-pyrazolo[3,4-d]pyrimidin-4-amine] | 69.93 % Inh | 95.07 | 25.3 | 17.08 % Inh | 53.69 | 461 |  |  |
| Nc1ncnc2c1c(-c1ccc(C(F)(F)F)c(OCc3ccccc3)c1)nn2C1Cc2ccccc2C1 [Compound No. 43, 3-[3-(benzyloxy)-4-(trifluoromethyl)phenyl]-1-(2,3-dihydro-1H-inden-2-yl)-1H-pyrazolo[3,4-d]pyrimidin-4-amine] | 3.54 % Inh | −0.8 |  | 11.31 % Inh | 11.07 |  |  |  |
| Nc1ncnc2c1c(-c1ccc(O)c(O)c1)nn2C1CCc2ccccc2C1 (stereo not drawn) [compound 1, 4-(4-amino-1-tetralin-2-yl-pyrazolo[3,4-d]pyrimidin-3-yl)benzene-1,2-diol] | 12.61 % Inh |  |  | 48.6 % Inh |  |  |  |  |
| Nc1ncnc2c1c(-c1cc(O)cc(F)c1)nn2C1CCCc2ccccc21 (stereo not drawn) [compound 11, 3-(4-amino-1-tetralin-1-yl-pyrazolo[3,4-d]pyrimidin-3-yl)-5-fluoro-phenol] | 22.06 % Inh |  |  | 45.08 % Inh |  |  |  |  |
| COc1ccc(-c2nn(C3CCc4ccccc4C3)c3ncnc(N)c23)cc1F (racemic) [Compound No. 14, 3-(3-fluoro-4-methoxyphenyl)-1-(1,2,3,4-tetrahydronaphthalen-2-yl)-1H-pyrazolo[3,4-d]pyrimidin-4-amine] |  |  | 217 |  |  | 7.9 |  |  |
| Nc1ncnc2c1c(-c1ccnc(O)c1)nn2C1Cc2ccccc2C1 [Compound No. 52, 4-[4-amino-1-(2,3-dihydro-1H-inden-2-yl)-1H-pyrazolo[3,4-d]pyrimidin-3-yl]pyridin-2-ol] | 9.25 % Inh | 24.21 |  | 6.493 % Inh | 37.25 |  |  |  |
| COc1ncc(-c2nn(C3CCc4ccccc4C3)c3ncnc(N)c23)cc1F (stereo not drawn) [compound 23, 3-(5-fluoro-6-methoxypyridin-3-yl)-1-(1,2,3,4-tetrahydronaphthalen-2-yl)-1H-pyrazolo[3,4-d]pyrimidin-4-amine] | 15.45 % Inh |  |  | 23.11 % Inh |  |  |  |  |
| Nc1ncnc2c1c(-c1ccc(F)c(O)c1)nn2C1CCc2ccccc21 (stereo not drawn) [compound 10, 5-(4-amino-1-indan-1-yl-pyrazolo[3,4-d]pyrimidin-3-yl)-2-fluoro-phenol] | 58.79 % Inh |  |  | 22.39 % Inh |  |  |  |  |
| Nc1ncnc2c1c(-c1ccc3[nH]cnc3c1)nn2C1Cc2ccccc2C1 [Compound No. 47, 3-(1H-1,3-benzodiazol-5-yl)-1-(2,3-dihydro-1H-inden-2-yl)-1H-pyrazolo[3,4-d]pyrimidin-4-amine] | 9.61 % Inh | 48.47 |  | 78.41 % Inh | 100.0 |  |  |  |
| Nc1ncnc2c1c(-c1ccc3cc[nH]c3c1)nn2C1CCCc2ccccc21 (stereo not drawn) [compound 38, 3-(1H-indol-6-yl)-1-(1,2,3,4-tetrahydronaphthalen-1-yl)-1H-pyrazolo[3,4-d]pyrimidin-4-amine] | 15.94 % Inh |  |  | 7.33 % Inh |  |  |  |  |
| COc1ccc(-c2nn(C3CCCc4ccccc43)c3ncnc(N)c23)cc1OC (stereo not drawn) [compound 33, 3-(3,4-dimethoxyphenyl)-1-(1,2,3,4-tetrahydronaphthalen-1-yl)-1H-pyrazolo[3,4-d]pyrimidin-4-amine] | 7.04 % Inh |  |  | 27.41 % Inh |  |  |  |  |
| CCOc1cc(-c2nn(C3Cc4ccccc4C3)c3ncnc(N)c23)cc(Cl)c1OC(C)C [Compound No. 79, 3-[3-chloro-5-ethoxy-4-(propan-2-yloxy)phenyl]-1-(2,3-dihydro-1H-inden-2-yl)-1H-pyrazolo[3,4-d]pyrimidin-4-amine] | 7.61 % Inh | 9.02 |  | 6.45 % Inh | 12.1 |  |  |  |
| Nc1ncnc2c1c(-c1ccc(O)c(F)c1)nn2C1CCc2ccccc2C1 (stereo not drawn) [compound 22, 4-(4-amino-1-(1,2,3,4-tetrahydronaphthalen-2-yl)-1H-pyrazolo[3,4-d]pyrimidin-3-yl)-2-fluorophenol] |  |  | 293 |  |  | 39.6 |  |  |
| NC(=O)c1ccc(-c2nn(C3CCc4ccccc4C3)c3ncnc(N)c23)cc1 (stereo not drawn) [compound 28, 4-(4-amino-1-tetralin-2-yl-pyrazolo[3,4-d]pyrimidin-3-yl)benzamide] | 14.0 % Inh |  |  | 15.27 % Inh |  |  |  |  |
| COc1cc(-c2nn(C3Cc4ccccc4C3)c3ncnc(N)c23)ccn1 [Compound No. 50, 1-(2,3-dihydro-1H-inden-2-yl)-3-(2-methoxypyridin-4-yl)-1H-pyrazolo[3,4-d]pyrimidin-4-amine] | 21.32 % Inh | 66.77 | 1260 | 39.05 % Inh | 79.98 | 362 |  |  |
| NC(=O)/C=C/c1nn(C2Cc3ccccc3C2)c2ncnc(N)c12 [Compound No. 58, (2E)-3-[4-amino-1-(2,3-dihydro-1H-inden-2-yl)-1H-pyrazolo[3,4-d]pyrimidin-3-yl]prop-2-enamide] | 18.0 % Inh | 43.79 |  | 33.15 % Inh | 44.88 |  |  |  |
| Nc1ncnc2c1c(-c1cc(O)c(F)c(F)c1)c(F)n2C1Cc2ccccc2C1 [compound 136, 5-[4-amino-7-(2,3-dihydro-1H-inden-2-yl)-6-fluoro-7H-pyrrolo[2,3-d]pyrimidin-5-yl]-2,3-difluorophenol] | 93.64 % Inh |  |  | 80.15 % Inh |  |  | 72.51 | 38.49 |
